{
  "source": "patent US4011322A",
  "about": "“Benzimidazole derivatives and process for the production thereof” (Schering Aktiengesellschaft, priority 1974, dated 1977)",
  "test_system": "stripped skin of volunteers (vasoconstriction / hyperemia)",
  "test": "Vasoconstriction test on stripped skin of volunteers (topical ointment)",
  "assay_type": "in vivo, human (volunteers)",
  "description": "The anti-inflammatory effectiveness of the novel benzimidazole derivatives can be determined in the conventional vasoconstriction test, as follows:\nOn the backs of volunteers for the experiment, the stratum corneum was removed by the application and tearing off of an adhesive strip, applied 20 times at the same spot, thus producing a pronounced hyperemia. Within the stripped area, respectively 50 mg. of ointment was applied to marked areas having a size of 4 cm^2, this ointment containing respectively 0.1, 0.01 or 0.001%, respectively, of the compound to be tested or of the reference substance in a water-oil base. […]\nTo determine the vasoconstriction, which is a representative syndrome of topical anti-inflammatory activity, the color value of the untreated skin and the treated stripped skin is measured and compared with the color value of the normal skin, with the color value of the normal skin being assigned the value 100 and the color value of the untreated stripped skin being assigned the value 0. Minor, medium, and high-grade vasoconstriction are evaluated with values between 0 and 100.\nThe results of such tests employing compounds of this invention (Compounds III and IV) and the prior art compounds Clemizole (I) and Flucortolone (II) are shown in Table I below.",
  "key": {"[1]": {"details": "0.001% in ointment, observation time 1 hour"}, "[2]": {"details": "0.001% in ointment, observation time 4 hours"}, "[3]": {"details": "0.001% in ointment, observation time 8 hours"}, "[4]": {"details": "0.01% in ointment, observation time 1 hour"}, "[5]": {"details": "0.01% in ointment, observation time 4 hours"}, "[6]": {"details": "0.01% in ointment, observation time 8 hours"}, "[7]": {"details": "0.1% in ointment, observation time 1 hour"}, "[8]": {"details": "0.1% in ointment, observation time 4 hours"}, "[9]": {"details": "0.1% in ointment, observation time 8 hours"}},
  "data": [
    {"smiles": "C[C@@H]1C[C@H]2[C@@H]3C[C@H](F)C4=CC(=O)C=C[C@]4(C)[C@H]3[C@@H](O)C[C@]2(C)[C@H]1C(=O)CO", "note": "[II, 6 α-Fluoro-11β,21-dihydroxy-16α-methyl-1,4-pregnadiene-3,20-dione]", "values": [
      {"measurement": "vasoconstriction (color value; normal skin = 100, untreated stripped skin = 0)", "setting": "[1]", "result": 20},
      {"measurement": "vasoconstriction (color value; normal skin = 100, untreated stripped skin = 0)", "setting": "[2]", "result": 50},
      {"measurement": "vasoconstriction (color value; normal skin = 100, untreated stripped skin = 0)", "setting": "[3]", "result": 60},
      {"measurement": "vasoconstriction (color value; normal skin = 100, untreated stripped skin = 0)", "setting": "[4]", "result": 15},
      {"measurement": "vasoconstriction (color value; normal skin = 100, untreated stripped skin = 0)", "setting": "[5]", "result": 65},
      {"measurement": "vasoconstriction (color value; normal skin = 100, untreated stripped skin = 0)", "setting": "[6]", "result": 85},
      {"measurement": "vasoconstriction (color value; normal skin = 100, untreated stripped skin = 0)", "setting": "[7]", "result": 35},
      {"measurement": "vasoconstriction (color value; normal skin = 100, untreated stripped skin = 0)", "setting": "[8]", "result": 75},
      {"measurement": "vasoconstriction (color value; normal skin = 100, untreated stripped skin = 0)", "setting": "[9]", "result": 85}
    ]},
    {"smiles": "Clc1ccc(Cn2c(CN3CCCC3)nc3ccccc32)cc1", "note": "[I, 1-4'Chlorobenzyl-2-pyrrolidinomethyl-benzimidazole]", "values": [
      {"measurement": "vasoconstriction (color value; normal skin = 100, untreated stripped skin = 0)", "setting": "[4]", "result": 18},
      {"measurement": "vasoconstriction (color value; normal skin = 100, untreated stripped skin = 0)", "setting": "[5]", "result": 31},
      {"measurement": "vasoconstriction (color value; normal skin = 100, untreated stripped skin = 0)", "setting": "[6]", "result": 33},
      {"measurement": "vasoconstriction (color value; normal skin = 100, untreated stripped skin = 0)", "setting": "[7]", "result": 18},
      {"measurement": "vasoconstriction (color value; normal skin = 100, untreated stripped skin = 0)", "setting": "[8]", "result": 35},
      {"measurement": "vasoconstriction (color value; normal skin = 100, untreated stripped skin = 0)", "setting": "[9]", "result": 45}
    ]},
    {"smiles": "CCN1CCN(Cc2nc3ccccc3n2Cc2ccccc2O)CC1", "note": "[III, 2-(4-Ethyl-1-piperazinyl)-methyl-1-(2-hydroxybenzyl)-benzimidazole]", "values": [
      {"measurement": "vasoconstriction (color value; normal skin = 100, untreated stripped skin = 0)", "setting": "[1]", "result": 15},
      {"measurement": "vasoconstriction (color value; normal skin = 100, untreated stripped skin = 0)", "setting": "[2]", "result": 15},
      {"measurement": "vasoconstriction (color value; normal skin = 100, untreated stripped skin = 0)", "setting": "[3]", "result": 20},
      {"measurement": "vasoconstriction (color value; normal skin = 100, untreated stripped skin = 0)", "setting": "[4]", "result": 35},
      {"measurement": "vasoconstriction (color value; normal skin = 100, untreated stripped skin = 0)", "setting": "[5]", "result": 55},
      {"measurement": "vasoconstriction (color value; normal skin = 100, untreated stripped skin = 0)", "setting": "[6]", "result": 55},
      {"measurement": "vasoconstriction (color value; normal skin = 100, untreated stripped skin = 0)", "setting": "[7]", "result": 45},
      {"measurement": "vasoconstriction (color value; normal skin = 100, untreated stripped skin = 0)", "setting": "[8]", "result": 80},
      {"measurement": "vasoconstriction (color value; normal skin = 100, untreated stripped skin = 0)", "setting": "[9]", "result": 85}
    ]},
    {"smiles": "CCN1CCN(Cc2nc3ccccc3n2Cc2ccc(Cl)cc2)CC1", "note": "[IV, 2-(4-Ethyl-1-piperazinyl)-methyl-1-(4-chlorobenzyl)-benzimidazole]", "values": [
      {"measurement": "vasoconstriction (color value; normal skin = 100, untreated stripped skin = 0)", "setting": "[1]", "result": 25},
      {"measurement": "vasoconstriction (color value; normal skin = 100, untreated stripped skin = 0)", "setting": "[2]", "result": 65},
      {"measurement": "vasoconstriction (color value; normal skin = 100, untreated stripped skin = 0)", "setting": "[3]", "result": 95},
      {"measurement": "vasoconstriction (color value; normal skin = 100, untreated stripped skin = 0)", "setting": "[4]", "result": 30},
      {"measurement": "vasoconstriction (color value; normal skin = 100, untreated stripped skin = 0)", "setting": "[5]", "result": 85},
      {"measurement": "vasoconstriction (color value; normal skin = 100, untreated stripped skin = 0)", "setting": "[6]", "result": 100}
    ]}
  ]
}
